From PubChem BioAssay (NCI)
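A five-concentration, 48-hour dose response in 96-well plates underlies each endpoint, interpolated linearly between surrounding concentrations. Abbreviation: GI50, concentration required for 50% inhibition of growth. The concentration for full growth arrest is given as TGI.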

What was measured:
Assay in all cases: NCI-60 cell line screen, 48 h
OVCAR-3 ovarian = system: OVCAR-3 ovarian
HOP-92 NSCLC = system: HOP-92 NSCLC
TK-10 renal = system: TK-10 renal
SK-MEL-28 melanoma = system: SK-MEL-28 melanoma
U251 CNS = system: U251 CNS
SF-539 CNS = system: SF-539 CNS
HS 578T breast = system: HS 578T breast
SNB-75 CNS = system: SNB-75 CNS
HL-60(TB) leukemia = system: HL-60(TB) leukemia
SF-268 CNS = system: SF-268 CNS
EKVX NSCLC = system: EKVX NSCLC
MCF7 breast = system: MCF7 breast
SK-OV-3 ovarian = system: SK-OV-3 ovarian
HT29 colon = system: HT29 colon
MALME-3M melanoma = system: MALME-3M melanoma
MDA-MB-435 = system: MDA-MB-435
HCC-2998 colon = system: HCC-2998 colon
KM12 colon = system: KM12 colon
MDA-MB-231 breast = system: MDA-MB-231 breast
MOLT-4 leukemia = system: MOLT-4 leukemia
NCI-H460 lung = system: NCI-H460 lung
SK-MEL-2 melanoma = system: SK-MEL-2 melanoma
A498 renal = system: A498 renal
SN12C renal = system: SN12C renal
COLO 205 colon = system: COLO 205 colon
LOX IMVI melanoma = system: LOX IMVI melanoma
PC-3 prostate = system: PC-3 prostate
HCT-15 colon = system: HCT-15 colon
HOP-62 NSCLC = system: HOP-62 NSCLC
IGROV1 ovarian = system: IGROV1 ovarian
HCT-116 colon = system: HCT-116 colon
RPMI-8226 leukemia = system: RPMI-8226 leukemia
SW-620 colon = system: SW-620 colon
NCI-H522 lung = system: NCI-H522 lung
UACC-62 melanoma = system: UACC-62 melanoma
M14 melanoma = system: M14 melanoma
OVCAR-4 ovarian = system: OVCAR-4 ovarian
RXF 393 renal = system: RXF 393 renal
UACC-257 melanoma = system: UACC-257 melanoma
A549 NSCLC = system: A549 NSCLC
T-47D breast = system: T-47D breast
CAKI-1 renal = system: CAKI-1 renal
SNB-19 CNS = system: SNB-19 CNS
OVCAR-8 ovarian = system: OVCAR-8 ovarian
UO-31 renal = system: UO-31 renal
ACHN renal = system: ACHN renal
786-0 renal = system: 786-0 renal
NCI-H23 lung = system: NCI-H23 lung
SK-MEL-5 melanoma = system: SK-MEL-5 melanoma
NCI-H226 lung = system: NCI-H226 lung
K-562 leukemia = system: K-562 leukemia
DU-145 prostate = system: DU-145 prostate
NCI/ADR-RES ovarian = system: NCI/ADR-RES ovarian
OVCAR-5 ovarian = system: OVCAR-5 ovarian
CCRF-CEM leukemia = system: CCRF-CEM leukemia
BT-549 breast = system: BT-549 breast
SF-295 CNS = system: SF-295 CNS

COc1cc2c3c(n(CCCNC(C)(C)CO)c(=O)c2cc1OC)-c1cc2c(cc1C3=O)OCO2
GI50 (OVCAR-3 ovarian): 15.1 µM
TGI (OVCAR-3 ovarian): 39.8 µM
GI50 (HOP-92 NSCLC): > 25.9 µM
TGI (HOP-92 NSCLC): > 53.1 µM
GI50 (TK-10 renal): 13 µM
TGI (TK-10 renal): 38.6 µM
GI50 (SK-MEL-28 melanoma): 25.4 µM
TGI (SK-MEL-28 melanoma): > 65.6 µM
GI50 (U251 CNS): 0.233 µM
TGI (U251 CNS): 28.4 µM
GI50 (SF-539 CNS): 0.356 µM
TGI (SF-539 CNS): 31.3 µM
GI50 (HS 578T breast): 24.5 µM
TGI (HS 578T breast): 80.7 µM
GI50 (SNB-75 CNS): 2.58 µM
TGI (SNB-75 CNS): 44 µM
GI50 (HL-60(TB) leukemia): 0.539 µM
TGI (HL-60(TB) leukemia): 4.16 µM
GI50 (SF-268 CNS): 3.81 µM
TGI (SF-268 CNS): 56.6 µM
GI50 (EKVX NSCLC): 16.6 µM
TGI (EKVX NSCLC): 42.7 µM
GI50 (MCF7 breast): 0.294 µM
TGI (MCF7 breast): > 50.5 µM
GI50 (SK-OV-3 ovarian): 17.9 µM
TGI (SK-OV-3 ovarian): > 68.2 µM
GI50 (HT29 colon): 1.08 µM
TGI (HT29 colon): > 100 µM
GI50 (MALME-3M melanoma): 14.8 µM
TGI (MALME-3M melanoma): 51.1 µM
GI50 (MDA-MB-435): 4.52 µM
TGI (MDA-MB-435): > 75.5 µM
GI50 (HCC-2998 colon): 1.39 µM
TGI (HCC-2998 colon): 7.87 µM
GI50 (KM12 colon): 2.19 µM
TGI (KM12 colon): > 100 µM
GI50 (MDA-MB-231 breast): 1.23 µM
TGI (MDA-MB-231 breast): 7 µM
TGI (MOLT-4 leukemia): 0.11 µM
GI50 (NCI-H460 lung): 1.15 µM
TGI (NCI-H460 lung): > 69.2 µM
GI50 (SK-MEL-2 melanoma): 30.8 µM
TGI (SK-MEL-2 melanoma): > 78.5 µM
GI50 (A498 renal): 17.1 µM
TGI (A498 renal): 40.1 µM
GI50 (SN12C renal): 0.157 µM
TGI (SN12C renal): 2.65 µM
GI50 (COLO 205 colon): 12.8 µM
TGI (COLO 205 colon): > 67.5 µM
GI50 (LOX IMVI melanoma): 0.255 µM
TGI (LOX IMVI melanoma): 2.06 µM
GI50 (PC-3 prostate): 2.75 µM
TGI (PC-3 prostate): 16.3 µM
GI50 (HCT-15 colon): 2.04 µM
TGI (HCT-15 colon): 16.6 µM
GI50 (HOP-62 NSCLC): 0.131 µM
TGI (HOP-62 NSCLC): 5.14 µM
GI50 (IGROV1 ovarian): 1.7 µM
TGI (IGROV1 ovarian): > 100 µM
GI50 (HCT-116 colon): 0.35 µM
TGI (HCT-116 colon): 1.73 µM
GI50 (RPMI-8226 leukemia): 0.0169 µM
TGI (RPMI-8226 leukemia): 0.464 µM
GI50 (SW-620 colon): 0.25 µM
TGI (SW-620 colon): 19 µM
GI50 (NCI-H522 lung): 0.448 µM
TGI (NCI-H522 lung): > 21.8 µM
GI50 (UACC-62 melanoma): 0.198 µM
TGI (UACC-62 melanoma): 5.23 µM
GI50 (M14 melanoma): 0.754 µM
TGI (M14 melanoma): 19 µM
GI50 (OVCAR-4 ovarian): 11.3 µM
TGI (OVCAR-4 ovarian): 42.1 µM
GI50 (RXF 393 renal): 16.2 µM
TGI (RXF 393 renal): > 68 µM
GI50 (UACC-257 melanoma): 19.1 µM
TGI (UACC-257 melanoma): 49.9 µM
GI50 (A549 NSCLC): 1.5 µM
TGI (A549 NSCLC): 23.9 µM
GI50 (T-47D breast): 3.47 µM
TGI (T-47D breast): 47.6 µM
GI50 (CAKI-1 renal): 0.446 µM
TGI (CAKI-1 renal): 23.8 µM
GI50 (SNB-19 CNS): 1.83 µM
TGI (SNB-19 CNS): > 61.2 µM
GI50 (OVCAR-8 ovarian): 1.18 µM
TGI (OVCAR-8 ovarian): 22.4 µM
GI50 (UO-31 renal): 1.96 µM
TGI (UO-31 renal): > 55.4 µM
GI50 (ACHN renal): 0.331 µM
TGI (ACHN renal): 14.3 µM
GI50 (786-0 renal): 0.0829 µM
TGI (786-0 renal): 0.66 µM
GI50 (NCI-H23 lung): 0.799 µM
TGI (NCI-H23 lung): 12.3 µM
GI50 (SK-MEL-5 melanoma): 3.5 µM
TGI (SK-MEL-5 melanoma): 13.3 µM
GI50 (NCI-H226 lung): 0.392 µM
TGI (NCI-H226 lung): 8.33 µM
GI50 (K-562 leukemia): 2.82 µM
TGI (K-562 leukemia): > 55.7 µM
GI50 (DU-145 prostate): 0.819 µM
TGI (DU-145 prostate): 16.3 µM
GI50 (NCI/ADR-RES ovarian): 3.28 µM
TGI (NCI/ADR-RES ovarian): 28.3 µM
GI50 (OVCAR-5 ovarian): 16.3 µM
TGI (OVCAR-5 ovarian): 36.8 µM
TGI (CCRF-CEM leukemia): 1.58 µM
GI50 (BT-549 breast): 12.9 µM
TGI (BT-549 breast): 39.2 µM
GI50 (SF-295 CNS): 0.214 µM
TGI (SF-295 CNS): 49.1 µM
